Measured values reported in US12378247B2, “Mesylate salt of para-topolin, compositions containing said salt and use thereof” (USTAV EXPERIMENTALNI BOTANIKY AV CR, V. V. I., priority 2020, dated 2025).
In brackets after ≈: the same amount, converted by molar mass. Several values for one entry are separate records, joined by “and”; a condition that tells them apart may be missing. Equal entries are not always repeated. Structures can show the parent of a compound that is named as a salt.

Columns and labels:
[1] = Aqueous solubility (saturated solution, HPLC); type: physicochemical; conditions: thermodynamic from solid, water, read-out: concentration of saturated solution in water (aqueous solubility)
Procedure: Aqueous solubility was measured using the following protocol. Supersaturated solution of para-topolin mesylate salt in water was prepared. The solution was filtrated from visible undissolved particles of the salt to obtain saturated solution. Saturated solution was diluted 1:10 000 and measured using HPLC Alliance Waters 2690 with C18 Symmetry column with the diameter 2.1 mm and 150 mm length with a porosity of 5 μm. The sample was dissolved in the mobile phase (MeOH:HCOONH4-1:9). The sample was washed with a methanol gradient (10-90%, 35 min) at pH 4 and a flow rate of 0.3 ml/min. The absorbances of the components were detected in the UV region at 210-400 nm. The peak area was 2729231. Obtained peak area was compared to area peaks measured at certain concentration and the final concentration of saturated solution was determined.

[2] = ORAC (Oxygen Radical Absorbance Capacity), ability to scavenge free radicals; type: biochemical; conditions: n = 3
Procedure: The ability of the substance to scavenge free radicals in vitro was determined using the ORAC (Oxygen Radical Absorbance Capacity) method. Briefly, 100 μl of fluorescein ([…]) and 25 μl of tested substance solution were pipetted into each well of a 96-well microtiter plate preheated to 37° C. The reaction itself was started by the addition of 25 μL 250 mM AAPH. After shaking for 5 s, the fluorescence (Ex. 485 nm, Em. 510 nm) was read every 3 min for 90 min using an Infinite 200 instrument (TECAN, Switzerland). The area under the curve was used to express the antioxidant capacity relative to trolox, which is used as a standard. […] Such activities are likely to be closely related to the electron-rich C6-hydroxybenzylamino substituent system.

[3] = Solubility in various organic solvents; type: physicochemical
Procedure: Solubility in various organic solvents was measured using the following protocol. Approximately 10 mg portions of para-topolin and crystalline para-topolin mesylate salt were placed in different vials, separately. Five volume aliquots of each solvent were added exclusively to a vial. Between each addition, the mixture was checked for dissolution and if no dissolution was apparent, the procedure was continued until dissolution was observed or further volumes had been added.

[4] = tested on: Salmonella typhimurium strain TA 98, TA 100, TA 1535, TA 1537 and Escherichia coli strain WP2 avrA; experiment: Ames test (bacterial reverse mutation assay); type: cell-based; conditions: 10-1000 μg per plate, with and without metabolic activation (rat liver supernatant)
Procedure: Para-topolin and para-topolin mesylate were tested for mutagenicity by a bacterial reverse mutation assay. The performance of the test was based on the EU method B.13/14 Mutagenicity-Reverse mutation test using bacteria, Council Regulation (EC) No. 440/2008, which is analogous to the OECD Test Guideline No. 471. Four indicators of Salmonella typhimurium strain TA 98, TA 100, TA 1535, TA 1537 were used and one Escherichia coli strain WP2 avrA was also used. The test substances were dissolved in dimethyl sulfoxide (DMSO) and tested at doses of 10-1000 μg per plate, which was applied to 0.1 ml plates. The experiments were performed with metabolic activation with rat liver supernatant and cofactor mixture as well as without metabolic activation.

[5] = tested on: Human diploid fibroblast BJ; experiment: MTT cytotoxicity assay in normal fibroblasts; type: cell-based; conditions: 72 hours
Procedure: MTT (metabolic tetrazolium toxicity) assay is a standard colorimetric assay for evaluation of cytotoxicity. Mitochondrial dehydrogenase activity converts yellow MTT into violet formazan which is measured by means of spectrometry. Human diploid fibroblast BJ (passage 18-22) were seeded into 96-well plate (5.000 cells per well). After 6 hours cultivation medium (DMEM with 5 g/l glucose, 2 mM glutamine, 100 U/ml penicillin, […] streptomycin, 10% fetal calf serum and sodium bicarbonate) was replaced with the cultivation medium containing test compounds in concentration range of 0-200 μM. Highest concentration was adjusted if the solubility of the compound was limiting. Every concentration was tested in pentaplicate. MTT was added to the cells after 72 hours incubation (final concentration 0.5 mg/ml) and incubation continued for another 3 hours. MTT was solubilised by DMSO and absorbance at 570 nm was measured. Growth inhibition (GI) was estimated using the following equitation: GI=(mean A drug exposed wells-mean Ablank/mean Acontrol wells−mean Ablank)×100%. The GI20 value, the drug concentration causing 20% decrease in mitochondrial dehydrogenase activity, was calculated from the obtained dose response curves.

Rat glioma C6 cells = experiment: Anti-inflammatory activity: isoproterenol-induced intracellular cAMP synthesis; type: cell-based
Procedure: The anti-inflammatory activity of para-topolin and para-topolin mesylate was determined; cytokinin kinetin was also evaluated as a control. Rat glioma C6 cells (ATCC No. CCL107) were cultured in a monolayer in chemically defined beser medium containing Ham's F10/minimal essential medium (1:1 v/v), 2 mM L-glutamine, 1% (v/v). Minimum vitamins of essential medium (100×), 1% (v/v) minimum essential amino acids (100×), 100 U/ml penicillin, […] streptomycin and 30 nM sodium selenite. Incubation was performed at 37° C. in a 100% humidified atmosphere. The assays were performed in logarithmic growth phase at a density of 2.5×10^5 cells/cm^2. Intracellular cAMP synthesis was induced by the addition of 5 mM (−)-isoproterenol; at the same time, various concentrations of tested compounds were added at the same time as (−)-isoproterenol. After 30 minutes of incubation, the cellular amount of CAMP was determined by ELISA (cAMP-enzyme immunoassay from Amersham). IC50 values were determined from the […] dose-response curve.

[6] = tested on: Senescent human diploid fibroblasts; experiment: Senescent cells (beta-galactosidase X-gal staining) in human fibroblast culture; type: cell-based
Procedure: Senescent human diploid fibroblasts (cells of different levels of passage: passage 20-P20; passage 40—labeled P40; passage 80—labeled P80) were seeded in a 24-well plate (10,000 cells/well). The culture medium (DMEM containing 5 g/l glucose, 2 mM glutamine, 100 U/ml penicillin, 100 μg/ml streptomycin and 10% fetal calf serum) was removed and replaced with culture medium containing test compound in a concentration range of 0 to 12.5 μM. Each concentration was tested in triplicate. The cells were then incubated at 37° C. […] In this experiment, senescent cells, but not other cells, were stained blue due to β-galactosidase on the substrate. […] In the oldest cells, there were only blue cells, from bright blue to almost opaque in color. Both para-topolins (base and mesylate salt) were effective in maintaining much lower levels of senescent cells after 80 passages. In the case of long-term culture, the treated cells were able to live 30% longer than the control cells.

[7] = isoproterenol-induced cAMP, C6 cells

**Q.** For Oc1ccc(CNc2ncnc3nc[nH]c23)cc1 [para-topolin mesylate, 6-(4-hydroxybenzylamino) purine (para-topolin) mesylate (methylsulphonate)], which Solubility [1] is on record?
**A.** ~1.2e+06 µM and ~407000 µg/mL

**Q.** What about the “ORAC Average(TE), Trolox equivalents on equimolar basis” value ([2]; listed as 6-(4-hydroxybenzylamino)purinium mesylate (pT mesylate)) of the same compound?
**A.** 21.436 TE

**Q.** And the Solubility ([3]; DMF, listed as p-topolin mesylate)?
**A.** 14000 µg/mL

**Q.** And the Solubility ([3]; DMSO, listed as p-topolin mesylate)?
**A.** 10000 µg/mL

**Q.** What about the Solubility ([3]; acetone, listed as p-topolin mesylate) of the same compound?
**A.** 330 µg/mL

**Q.** And the Solubility ([3]; acetonitrile)?
**A.** <250 µg/mL

**Q.** And the Solubility ([3]; ethanol, listed as p-topolin mesylate)?
**A.** 400 µg/mL

**Q.** What about the Solubility ([3]; heptane) of the same compound?
**A.** <100 µg/mL

**Q.** What about the Solubility ([3]; methanol, listed as p-topolin mesylate) of the same compound?
**A.** 5000 µg/mL

**Q.** What about the Mutagenicity [4] of the same compound?
**A.** non-mutagenic

**Q.** And the “Cytotoxicity for Human Diploid Fibroblasts GI20” value ([5]; listed as 6-(4-hydroxybenzylamino)purine mesylate (para-topolin mesylate))?
**A.** >167 µM

**Q.** What about the “Anti-inflammatory activity (in words)” value (Rat glioma C6 cells; [7]) of the same compound?
**A.** showed anti-inflammatory activity

**Q.** What about the “Anti-inflammatory activity relative to free base para-topolin” value (Rat glioma C6 cells; [7]) of the same compound?
**A.** twice more active

**Q.** What about the “Senescent cells (%)” value ([6]; cell passage P20, listed as 6-(4-hydroxybenzylamino)purine mesylate (para-topolin mesylate)) of the same compound?
**A.** 3%

**Q.** What about the “Senescent cells (%)” value ([6]; cell passage P40, listed as 6-(4-hydroxybenzylamino)purine mesylate (para-topolin mesylate)) of the same compound?
**A.** 12%

**Q.** What about the “Senescent cells (%)” value ([6]; cell passage P80, listed as 6-(4-hydroxybenzylamino)purine mesylate (para-topolin mesylate)) of the same compound?
**A.** 21%

**Q.** For Oc1ccc(CNc2ncnc3nc[nH]c23)cc1 [para-topolin, 6-(4-Hydroxybenzylamino) purine], which “ORAC Average(TE), Trolox equivalents on equimolar basis” value ([2]; listed as 6-(4-hydroxybenzylamino)purine (pT)) is on record?
**A.** 16.799 TE

**Q.** What about the Solubility ([3]; DMF, listed as p-topolin) of the same compound?
**A.** 5000 µg/mL (≈ 20700 µM)

**Q.** What about the Solubility ([3]; DMSO, organic solvent or mixture, thermodynamic from solid, DMSO, read-out: Solubility) of the same compound?
**A.** 6660 µg/mL (≈ 27600 µM)

**Q.** And the Solubility ([3]; acetone, organic solvent or mixture, thermodynamic from solid, acetone, read-out: Solubility)?
**A.** 200 µg/mL (≈ 829 µM)

**Q.** What about the Solubility ([3]; acetonitrile, organic solvent or mixture, thermodynamic from solid, acetonitrile, read-out: Solubility) of the same compound?
**A.** < 250 µg/mL

**Q.** What about the Solubility ([3]; ethanol, organic solvent or mixture, thermodynamic from solid, ethanol, read-out: Solubility) of the same compound?
**A.** 250 µg/mL (≈ 1040 µM)

**Q.** And the Solubility ([3]; heptane, organic solvent or mixture, thermodynamic from solid, heptane, read-out: Solubility)?
**A.** < 100 µg/mL

**Q.** What about the Solubility ([3]; methanol, listed as p-topolin) of the same compound?
**A.** 250 µg/mL (≈ 1040 µM)

**Q.** And the Mutagenicity [4]?
**A.** non-mutagenic

**Q.** What about the “Cytotoxicity for Human Diploid Fibroblasts GI20” value ([5]; listed as 6-(4-hydroxybenzylamino)purine (para-topolin)) of the same compound?
**A.** 138 µM

**Q.** And the IC50 (Rat glioma C6 cells; Rattus norvegicus, C6, 0.5 h, 5 mM (−)-isoproterenol, 30 minutes, cAMP by ELISA)?
**A.** 7 µM

**Q.** And the “Anti-inflammatory activity (in words)” value (Rat glioma C6 cells; [7])?
**A.** showed anti-inflammatory activity

**Q.** And the “Senescent cells (%)” value ([6]; cell passage P20, listed as 6-(4-hydroxybenzylamino)purine (para-topolin))?
**A.** 4%

**Q.** And the “Senescent cells (%)” value ([6]; cell passage P40, listed as 6-(4-hydroxybenzylamino)purine (para-topolin))?
**A.** 14%

**Q.** And the “Senescent cells (%)” value ([6]; cell passage P80, listed as 6-(4-hydroxybenzylamino)purine (para-topolin))?
**A.** 25%
